Common to all, as to assay: relative viability (nuclei count vs DMSO), 5 days (fraction); higher = more cells survive
Compound in the assay “BGJ398 + Foretinib”: CCN1CCN(c2ccc(Nc3cc(N(C)C(=O)Nc4c(Cl)c(OC)cc(OC)c4Cl)ncn3)cc2)CC1 [BGJ398] + COc1cc2c(Oc3ccc(NC(=O)C4(C(=O)Nc5ccc(F)cc5)CC4)cc3F)ccnc2cc1OCCCN1CCOCC1 [Foretinib] (partner 0.25 µM)
The procedure, abridged:
(§1)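 The day after seeding in 1536-well plates, lung cancer cell lines were treated by pin tool with a single drug, or with a fixed anchor-drug dose together with five library-drug doses (not always all listed) in √10 steps. After 5 days, a combined fix-and-stain solution (final 0.05% Triton X-100, 1% formaldehyde, 1 ug/ml Hoechst) was added. Nuclei counted on 4× images gave relative viability as treated counts over vehicle counts, reported as the median of duplicate plates.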

Compound in the assay “BGJ398 + Linsitinib”: CCN1CCN(c2ccc(Nc3cc(N(C)C(=O)Nc4c(Cl)c(OC)cc(OC)c4Cl)ncn3)cc2)CC1 [BGJ398] + C[C@]1(O)C[C@@H](c2nc(-c3ccc4ccc(-c5ccccc5)nc4c3)c3c(N)nccn32)C1 [Linsitinib] (partner 1 µM)
The method in brief: as §1

Compound in assay [1]: C1=CC2=NC=CN=C2C=C1/C=C/3\C(=O)NC(=O)S3 + Cc1cc(Nc2cc(N3CCN(C)CC3)nc(Sc3ccc(NC(=O)C4CC4)cc3)n2)n[nH]1 [Tozasertib] (partner 0.1 µM)
The method in brief: as §1

Compound in the assay “BGJ398 + Bortezomib”: CCN1CCN(c2ccc(Nc3cc(N(C)C(=O)Nc4c(Cl)c(OC)cc(OC)c4Cl)ncn3)cc2)CC1 [BGJ398] + CC(C)C[C@H](NC(=O)[C@H](Cc1ccccc1)NC(=O)c1cnccn1)B(O)O [Bortezomib] (partner 0.002 µM)
The method in brief: as §1

For 201T, the relative viability came out at 1.18 with BGJ398 + Foretinib (first compound 0.01 µM); 1.1 in the assay with BGJ398 + Foretinib (first compound 0.03162 µM); 1.05 with BGJ398 + Foretinib (first compound 0.1 µM); 0.958 with BGJ398 + Foretinib (first compound 0.3162 µM); 1.02 with BGJ398 + Foretinib (first compound 1 µM); 1.17 in the assay with BGJ398 + Linsitinib (first compound 0.01 µM). The relative viability with BGJ398 + Linsitinib (first compound 0.03162 µM) was determined as 1.08; in the assay with BGJ398 + Linsitinib (first compound 0.1 µM), 1.07; in the assay with BGJ398 + Linsitinib (first compound 0.3162 µM), 1.06; with BGJ398 + Linsitinib (first compound 1 µM), 1.01; in assay [1] (first compound 0.02 µM), 0.8; in assay [1] (first compound 0.06325 µM), 0.922. The relative viability in assay [1] (first compound 0.2 µM) amounted to 0.917; in assay [1] (first compound 0.6325 µM) it was 0.873; in assay [1] (first compound 2 µM), 0.854; with BGJ398 + Bortezomib (first compound 0.01 µM), 1.24; with BGJ398 + Bortezomib (first compound 0.03162 µM), 1.08; in the assay with BGJ398 + Bortezomib (first compound 0.1 µM) it was 1.11. The relative viability with BGJ398 + Bortezomib (first compound 0.3162 µM) is 1.07; in the assay with BGJ398 + Bortezomib (first compound 1 µM), 1.04.

On to A549, for which the relative viability with BGJ398 + Foretinib (first compound 0.01 µM) was determined as 0.919; with BGJ398 + Foretinib (first compound 0.03162 µM), 0.939; with BGJ398 + Foretinib (first compound 0.1 µM), 0.97; with BGJ398 + Foretinib (first compound 0.3162 µM), 0.944; in the assay with BGJ398 + Foretinib (first compound 1 µM), 1.09; with BGJ398 + Linsitinib (first compound 0.01 µM), 0.637. The relative viability with BGJ398 + Linsitinib (first compound 0.03162 µM) amounted to 0.53; with BGJ398 + Linsitinib (first compound 0.1 µM), 0.857; with BGJ398 + Linsitinib (first compound 0.3162 µM) it was 0.569; with BGJ398 + Linsitinib (first compound 1 µM) it was 0.658.

A-427: the relative viability was found to be 1.09 with BGJ398 + Foretinib (first compound 0.01 µM); 0.919 with BGJ398 + Foretinib (first compound 0.03162 µM); 0.954 with BGJ398 + Foretinib (first compound 0.1 µM); 0.715 in the assay with BGJ398 + Foretinib (first compound 0.3162 µM); 0.623 with BGJ398 + Foretinib (first compound 1 µM); 1.12 in the assay with BGJ398 + Linsitinib (first compound 0.01 µM). In addition, the relative viability stood at 1.15 in the assay with BGJ398 + Linsitinib (first compound 0.03162 µM); 1.15 with BGJ398 + Linsitinib (first compound 0.1 µM); 0.884 in the assay with BGJ398 + Linsitinib (first compound 0.3162 µM); 0.799 with BGJ398 + Linsitinib (first compound 1 µM); 0.209 in assay [1] (first compound 0.02 µM); 0.241 in assay [1] (first compound 0.06325 µM). Also, the relative viability in assay [1] (first compound 0.2 µM) was determined as 0.198; in assay [1] (first compound 0.6325 µM) it was 0.198; in assay [1] (first compound 2 µM), 0.228; with BGJ398 + Bortezomib (first compound 0.01 µM), 0.984; with BGJ398 + Bortezomib (first compound 0.03162 µM) it was 0.991; with BGJ398 + Bortezomib (first compound 0.1 µM) it was 1.12. For the same cell line, the relative viability with BGJ398 + Bortezomib (first compound 0.3162 µM) is 0.774; with BGJ398 + Bortezomib (first compound 1 µM), 0.743.

For ABC-1, the relative viability with BGJ398 + Foretinib (first compound 0.01 µM) is 0.962; with BGJ398 + Foretinib (first compound 0.03162 µM), 1.19; with BGJ398 + Foretinib (first compound 0.1 µM), 1.05; in the assay with BGJ398 + Foretinib (first compound 0.3162 µM), 1.26; in the assay with BGJ398 + Foretinib (first compound 1 µM), 0.973; in the assay with BGJ398 + Linsitinib (first compound 0.01 µM), 0.685. Moreover, the relative viability with BGJ398 + Linsitinib (first compound 0.03162 µM) was 1.01; with BGJ398 + Linsitinib (first compound 0.1 µM), 0.746; in the assay with BGJ398 + Linsitinib (first compound 0.3162 µM) it was 0.999; with BGJ398 + Linsitinib (first compound 1 µM), 0.658; in assay [1] (first compound 0.02 µM) it was 0.175; in assay [1] (first compound 0.06325 µM), 0.217. In addition, the relative viability was 0.193 in assay [1] (first compound 0.2 µM); 0.165 in assay [1] (first compound 0.6325 µM); 0.179 in assay [1] (first compound 2 µM); 0.306 with BGJ398 + Bortezomib (first compound 0.01 µM); 0.34 in the assay with BGJ398 + Bortezomib (first compound 0.03162 µM); 0.287 in the assay with BGJ398 + Bortezomib (first compound 0.1 µM). The relative viability with BGJ398 + Bortezomib (first compound 0.3162 µM) turned out to be 0.321; in the assay with BGJ398 + Bortezomib (first compound 1 µM), 0.299.

With BEN, the relative viability was found to be 0.722 with BGJ398 + Foretinib (first compound 0.01 µM); 0.866 with BGJ398 + Foretinib (first compound 0.03162 µM); 0.568 with BGJ398 + Foretinib (first compound 0.1 µM); 0.395 with BGJ398 + Foretinib (first compound 0.3162 µM); 0.453 with BGJ398 + Foretinib (first compound 1 µM); 0.935 with BGJ398 + Linsitinib (first compound 0.01 µM). Further, the relative viability is 0.95 in the assay with BGJ398 + Linsitinib (first compound 0.03162 µM); 0.89 with BGJ398 + Linsitinib (first compound 0.1 µM); 0.818 with BGJ398 + Linsitinib (first compound 0.3162 µM); 0.798 with BGJ398 + Linsitinib (first compound 1 µM); 0.525 in assay [1] (first compound 0.02 µM); 0.446 in assay [1] (first compound 0.06325 µM). Also, the relative viability in assay [1] (first compound 0.2 µM) came to 0.551; in assay [1] (first compound 0.6325 µM), 0.517; in assay [1] (first compound 2 µM), 0.683; in the assay with BGJ398 + Bortezomib (first compound 0.01 µM), 0.719; with BGJ398 + Bortezomib (first compound 0.03162 µM) it was 0.976; in the assay with BGJ398 + Bortezomib (first compound 0.1 µM), 0.715. In addition, the relative viability in the assay with BGJ398 + Bortezomib (first compound 0.3162 µM) was found to be 0.656; with BGJ398 + Bortezomib (first compound 1 µM), 0.619.

In the case of CAL-12T, the relative viability with BGJ398 + Foretinib (first compound 0.01 µM) was found to be 1.04; with BGJ398 + Foretinib (first compound 0.03162 µM) it was 1.13; with BGJ398 + Foretinib (first compound 0.1 µM) it was 1.04; with BGJ398 + Foretinib (first compound 0.3162 µM), 1.11; with BGJ398 + Foretinib (first compound 1 µM) it was 1.12; in the assay with BGJ398 + Linsitinib (first compound 0.01 µM), 0.774. Moreover, the relative viability with BGJ398 + Linsitinib (first compound 0.03162 µM) was 0.782; in the assay with BGJ398 + Linsitinib (first compound 0.1 µM) it was 0.882; with BGJ398 + Linsitinib (first compound 0.3162 µM) it was 0.773; with BGJ398 + Linsitinib (first compound 1 µM), 0.756; in assay [1] (first compound 0.02 µM), 0.289; in assay [1] (first compound 0.06325 µM), 0.383. Moreover, the relative viability in assay [1] (first compound 0.2 µM) stood at 0.346; in assay [1] (first compound 0.6325 µM) it was 0.313; in assay [1] (first compound 2 µM) it was 0.331; with BGJ398 + Bortezomib (first compound 0.01 µM), 0.954; in the assay with BGJ398 + Bortezomib (first compound 0.03162 µM), 0.852; with BGJ398 + Bortezomib (first compound 0.1 µM) it was 0.996. The relative viability came to 0.943 in the assay with BGJ398 + Bortezomib (first compound 0.3162 µM) and 0.837 with BGJ398 + Bortezomib (first compound 1 µM).

Turning to COR-L23, the relative viability in the assay with BGJ398 + Foretinib (first compound 0.01 µM) is 0.955; with BGJ398 + Foretinib (first compound 0.03162 µM), 1.09; in the assay with BGJ398 + Foretinib (first compound 0.1 µM) it was 1.04; in the assay with BGJ398 + Foretinib (first compound 0.3162 µM), 0.865; with BGJ398 + Foretinib (first compound 1 µM), 1.14; with BGJ398 + Linsitinib (first compound 0.01 µM) it was 0.929. For the same cell line, the relative viability in the assay with BGJ398 + Linsitinib (first compound 0.03162 µM) was 0.873; with BGJ398 + Linsitinib (first compound 0.1 µM), 1.04; with BGJ398 + Linsitinib (first compound 0.3162 µM), 0.975; in the assay with BGJ398 + Linsitinib (first compound 1 µM), 0.923; in assay [1] (first compound 0.02 µM), 0.168; in assay [1] (first compound 0.06325 µM) it was 0.218. In addition, the relative viability came out at 0.19 in assay [1] (first compound 0.2 µM); 0.211 in assay [1] (first compound 0.6325 µM); 0.188 in assay [1] (first compound 2 µM); 0.942 with BGJ398 + Bortezomib (first compound 0.01 µM); 0.975 with BGJ398 + Bortezomib (first compound 0.03162 µM); 1.08 with BGJ398 + Bortezomib (first compound 0.1 µM). Further, the relative viability with BGJ398 + Bortezomib (first compound 0.3162 µM) came to 0.855; with BGJ398 + Bortezomib (first compound 1 µM), 0.99.

Consider COR-L 105, for which the relative viability with BGJ398 + Foretinib (first compound 0.01 µM) is 1.05; in the assay with BGJ398 + Foretinib (first compound 0.03162 µM), 1.13; with BGJ398 + Foretinib (first compound 0.1 µM), 1.09; with BGJ398 + Foretinib (first compound 0.3162 µM), 1.07; with BGJ398 + Foretinib (first compound 1 µM), 0.892; with BGJ398 + Linsitinib (first compound 0.01 µM) it was 0.824. The relative viability came to 1.09 with BGJ398 + Linsitinib (first compound 0.03162 µM); 0.851 in the assay with BGJ398 + Linsitinib (first compound 0.1 µM); 0.777 with BGJ398 + Linsitinib (first compound 0.3162 µM); 0.8 with BGJ398 + Linsitinib (first compound 1 µM); 0.311 in assay [1] (first compound 0.02 µM); 0.369 in assay [1] (first compound 0.06325 µM). Further, the relative viability in assay [1] (first compound 0.2 µM) turned out to be 0.343; in assay [1] (first compound 0.6325 µM), 0.349; in assay [1] (first compound 2 µM) it was 0.354; in the assay with BGJ398 + Bortezomib (first compound 0.01 µM), 0.717; with BGJ398 + Bortezomib (first compound 0.03162 µM) it was 0.514; with BGJ398 + Bortezomib (first compound 0.1 µM), 0.703. For the same cell line, the relative viability with BGJ398 + Bortezomib (first compound 0.3162 µM) came out at 0.792; with BGJ398 + Bortezomib (first compound 1 µM) it was 0.73.
